Drawing on BindingDB's records for doi:10.1016/j.bmcl.2009.09.123 (Genomics Institute of The Novartis Research Foundation, 2009), this text covers IC50 for 25 compounds.

Experiment [1] can be described thus: Inhibition of Tel-fused LCK expressed in mouse BAF3 cells.
Experiment [2] in a line: Inhibition of Tel-fused SRC expressed in mouse BAF3 cells.
A short description of experiment [3]: Inhibition of Tel-fused LYN expressed in mouse BAF3 cells.
Experiment [4] can be described thus: Inhibition of Tel-fused KDR expressed in mouse BAF3 cells.

Each structure is given as a SMILES string. Bounds are passed on as bounds.

Take `Cc1ccc(C(=O)Nc2cccc(C(F)(F)F)c2)cc1Nc1nc2ccccc2n1-c1cc(NCCC#N)ncn1` [3-(1-(6-(2-cyanoethylamino)pyrimidin-4-yl)-1H-benzo[d]imidazol-2-ylamino)-4-methyl-N-(3-(trifluoromethyl)phenyl)benzamide]: the IC50 stood at 275 nM in experiment [1], 1220 nM in experiment [2], 468 nM in experiment [3] and 245 nM in experiment [4].

Regarding `CCN(CC)CCCCNc1cc(-n2c(Nc3cc(C(=O)Nc4cccc(C(F)(F)F)c4)ccc3C)nc3ccccc32)ncn1` [3-(1-(6-(4-(diethylamino)butylamino)pyrimidin-4-yl)-1H-benzo[d]imidazol-2-ylamino)-4-methyl-N-(3-(trifluoromethyl)phenyl)benzamide], the IC50 worked out at 52 nM in experiment [1], 140 nM in experiment [3] and 243 nM in experiment [4].

As to `CCN(CC)CCCCNc1cc(-n2c(Nc3cc(C(=O)Nc4cccc(C)c4)ccc3C)nc3ccccc32)ncn1` [3-(1-(6-(4-(diethylamino)butylamino)pyrimidin-4-yl)-1H-benzo[d]imidazol-2-ylamino)-4-methyl-N-m-tolylbenzamide], the IC50 in experiment [1] came out at 406 nM; in experiment [2], 1060 nM; in experiment [3], 1320 nM; in experiment [4], 1360 nM.

Turning to `Cc1ccc(C(=O)Nc2cccc(C(F)(F)F)c2)cc1Nc1nc2ccccc2n1-c1cc(NCCCCN(C)C)ncn1` [3-(1-(6-(4-(dimethylamino)butylamino)pyrimidin-4-yl)-1H-benzo[d]imidazol-2-ylamino)-4-methyl-N-(3-(trifluoromethyl)phenyl)benzamide], the IC50 in experiment [1] was found to be 38 nM; in experiment [2], 556 nM; in experiment [3] it was 134 nM; in experiment [4], 249 nM.

Consider `Cc1cccc(NC(=O)c2ccc(C)c(Nc3nc4ccccc4n3-c3cc(NCCCCN(C)C)ncn3)c2)c1` [3-(1-(6-(4-(dimethylamino)butylamino)pyrimidin-4-yl)-1H-benzo[d]imidazol-2-ylamino)-4-methyl-N-m-tolylbenzamide], for which the IC50 came out at 531 nM in experiment [1], 1270 nM in experiment [2], 1380 nM in experiment [3] and 1500 nM in experiment [4].

For the compound `Cc1ccc(C(=O)Nc2cccc(C(F)(F)F)c2)cc1Nc1nc2ccccc2n1-c1ncnc(N)c1C` [3-(1-(6-amino-5-methylpyrimidin-4-yl)-1H-benzo[d]imidazol-2-ylamino)-4-methyl-N-(3-(trifluoromethyl)phenyl)benzamide], the IC50 in experiment [1] is 4460 nM; in experiment [2] it was more than 10000 nM; in experiment [3], 8010 nM; in experiment [4] it was 8180 nM.

Regarding `Cc1cc(NC(=O)c2ccc(C)c(Nc3nc4ccccc4n3-c3cc(N)ncn3)c2)ccn1` [3-(1-(6-aminopyrimidin-4-yl)-1H-benzo[d]imidazol-2-ylamino)-4-methyl-N-(2-methylpyridin-4-yl)benzamide], the IC50 in experiment [1] is 702 nM; in experiment [2] it was more than 10000 nM; in experiment [3] it was more than 10000 nM; in experiment [4], 135 nM.

On to `Cc1cn(-c2cc(NC(=O)c3ccc(C)c(Nc4nc5ccccc5n4-c4cc(N)ncn4)c3)cc(C(F)(F)F)c2)cn1` [3-(1-(6-aminopyrimidin-4-yl)-1H-benzo[d]imidazol-2-ylamino)-4-methyl-N-(3-(4-methyl-1H-imidazol-1-yl)-5-(trifluoromethyl)phenyl)benzamide], for which the IC50 was 14 nM in experiment [1], 107 nM in experiment [2], 28 nM in experiment [3] and 20 nM in experiment [4].

Consider `Cc1ccc(C(=O)Nc2cccc(C(F)(F)F)c2)cc1Nc1nc2ccccc2n1-c1cc(N)ncn1` [3-(1-(6-aminopyrimidin-4-yl)-1H-benzo[d]imidazol-2-ylamino)-4-methyl-N-(3-(trifluoromethyl)phenyl)benzamide], for which the 50% inhibitory concentration (IC50) in experiment [1] was 20 nM; in experiment [2] it was more than 10000 nM; in experiment [3], 15 nM; in experiment [4], 55 nM.

Regarding `Cc1cccc(NC(=O)c2ccc(C)c(Nc3nc4ccccc4n3-c3cc(N)ncn3)c2)c1` [3-(1-(6-aminopyrimidin-4-yl)-1H-benzo[d]imidazol-2-ylamino)-4-methyl-N-m-tolylbenzamide], the IC50 in experiment [1] was 83 nM; in experiment [2], 7170 nM; in experiment [3], 1080 nM; in experiment [4] it was 1020 nM.

On to `Cc1ccc(C(=O)Nc2ccccc2)cc1Nc1nc2ccccc2n1-c1cc(N)ncn1` [3-(1-(6-aminopyrimidin-4-yl)-1H-benzo[d]imidazol-2-ylamino)-4-methyl-N-phenylbenzamide], for which the IC50 in experiment [1] came out at 2280 nM; in experiment [2], 6170 nM; in experiment [3] it was 5510 nM; in experiment [4], 8820 nM.

As to `Cc1ccc(C(=O)Nc2cccc(OC(F)F)c2)cc1Nc1nc2ccccc2n1-c1cc(N)ncn1` [3-(1-(6-aminopyrimidin-4-yl)-1H-benzo[d]imidazol-2-ylamino)-N-(3-(difluoromethoxy)phenyl)-4-methylbenzamide], the IC50 in experiment [1] was 47 nM; in experiment [2], more than 10000 nM; in experiment [3], 100 nM; in experiment [4], 92 nM.

Take `Cc1ccc(C(=O)Nc2cccc(Br)c2)cc1Nc1nc2ccccc2n1-c1cc(N)ncn1` [3-(1-(6-aminopyrimidin-4-yl)-1H-benzo[d]imidazol-2-ylamino)-N-(3-bromophenyl)-4-methylbenzamide]: the IC50 in experiment [1] turned out to be 52 nM; in experiment [2] it was 5380 nM; in experiment [3], 272 nM; in experiment [4] it was 464 nM.

On to `Cc1ccc(C(=O)Nc2cccc(C(N)=O)c2)cc1Nc1nc2ccccc2n1-c1cc(N)ncn1` [3-(1-(6-aminopyrimidin-4-yl)-1H-benzo[d]imidazol-2-ylamino)-N-(3-carbamoylphenyl)-4-methylbenzamide], for which the half-maximal inhibitory concentration (IC50) in experiment [1], in experiment [2], in experiment [3] and in experiment [4] was more than 10000 nM throughout.

Regarding `Cc1ccc(C(=O)Nc2cccc(Cl)c2)cc1Nc1nc2ccccc2n1-c1cc(N)ncn1` [3-(1-(6-aminopyrimidin-4-yl)-1H-benzo[d]imidazol-2-ylamino)-N-(3-chlorophenyl)-4-methylbenzamide], the IC50 in experiment [1] was 76 nM; in experiment [2], more than 10000 nM; in experiment [3], more than 10000 nM; in experiment [4] it was 260 nM.

As for `Cc1ccc(C(=O)Nc2cccc(C(C)C)c2)cc1Nc1nc2ccccc2n1-c1cc(N)ncn1` [3-(1-(6-aminopyrimidin-4-yl)-1H-benzo[d]imidazol-2-ylamino)-N-(3-isopropylphenyl)-4-methylbenzamide], the IC50 in experiment [1] came out at 7 nM; in experiment [2], 21 nM; in experiment [3], 15 nM; in experiment [4] it was 17 nM.

On to `COc1cccc(NC(=O)c2ccc(C)c(Nc3nc4ccccc4n3-c3cc(N)ncn3)c2)c1` [3-(1-(6-aminopyrimidin-4-yl)-1H-benzo[d]imidazol-2-ylamino)-N-(3-methoxyphenyl)-4-methylbenzamide], for which the IC50 in experiment [1] was 157 nM; in experiment [2], 4390 nM; in experiment [3] it was 437 nM; in experiment [4], 516 nM.

Consider `COCCNc1cc(-n2c(Nc3cc(NC(=O)c4cccc(C(F)(F)F)c4)ccc3C)nc3ccccc32)ncn1` [N-(3-(1-(6-(2-methoxyethylamino)pyrimidin-4-yl)-1H-benzo[d]imidazol-2-ylamino)-4-methylphenyl)-3-(trifluoromethyl)benzamide], for which the IC50 in experiment [2] is 606 nM; in experiment [3], 126 nM; in experiment [4] it was 296 nM.

As for `CCN(CC)CCCCNc1cc(-n2c(Nc3cc(NC(=O)c4cccc(C(F)(F)F)c4)ccc3C)nc3ccccc32)ncn1` [N-(3-(1-(6-(4-(diethylamino)butylamino)pyrimidin-4-yl)-1H-benzo[d]imidazol-2-ylamino)-4-methylphenyl)-3-(trifluoromethyl)benzamide], the IC50 in experiment [1] turned out to be 41 nM; in experiment [3], 217 nM; in experiment [4] it was 885 nM.

On to `Cc1ccc(NC(=O)c2cccc(Cl)c2)cc1Nc1nc2ccccc2n1-c1cc(N)ncn1` [N-(3-(1-(6-aminopyrimidin-4-yl)-1H-benzo[d]imidazol-2-ylamino)-4-methylphenyl)-3-chlorobenzamide], for which the figures for the concentration for half-maximal inhibition (IC50) in experiment [1], in experiment [2] and in experiment [4] were 84 nM, 650 nM and 576 nM, respectively.

Turning to `Cc1ccc(NC(=O)c2ccncc2Cl)cc1Nc1nc2ccccc2n1-c1cc(N)ncn1` [N-(3-(1-(6-aminopyrimidin-4-yl)-1H-benzo[d]imidazol-2-ylamino)-4-methylphenyl)-3-chloroisonicotinamide], the IC50 was 890 nM in experiment [1], more than 10000 nM in experiment [2] and 595 nM in experiment [3].

For the compound `Cc1ccc(NC(=O)c2cc(C(C)(C)C)nn2C)cc1Nc1nc2ccccc2n1-c1cc(N)ncn1` [N-(3-(1-(6-aminopyrimidin-4-yl)-1H-benzo[d]imidazol-2-ylamino)-4-methylphenyl)-3-tert-butyl-1-methyl-1H-pyrazole-5-carboxamide], the IC50 stood at 224 nM in experiment [1], 959 nM in experiment [2] and 451 nM in experiment [4].

With `Cc1ccc(NC(=O)c2ccncc2C(C)(C)C)cc1Nc1nc2ccccc2n1-c1cc(N)ncn1` [N-(3-(1-(6-aminopyrimidin-4-yl)-1H-benzo[d]imidazol-2-ylamino)-4-methylphenyl)-3-tert-butylisonicotinamide], the IC50 in experiment [2] was 56 nM.

With `Cc1ccc(NC(=O)c2cccc(C(F)(F)F)c2)cc1Nc1nc2ccccc2n1-c1cc(Cl)ncn1` [N-(3-(1-(6-chloropyrimidin-4-yl)-1H-benzo[d]imidazol-2-ylamino)-4-methylphenyl)-3-(trifluoromethyl)benzamide], the IC50 in experiment [1] was found to be 2700 nM; in experiment [3], 3300 nM; in experiment [4] it was 9070 nM.

In the case of `Cc1ccc(NC(=O)c2cccc(C(F)(F)F)c2)cc1Nc1nc2ccccc2n1-c1cc(NCCC2CCCN2)ncn1` (centres undefined) [N-(4-methyl-3-(1-(6-(2-(pyrrolidin-2-yl)ethylamino)pyrimidin-4-yl)-1H-benzo[d]imidazol-2-ylamino)phenyl)-3-(trifluoromethyl)benzamide], the IC50 in experiment [1] is 238 nM; in experiment [2], 903 nM; in experiment [4], 941 nM.

As usually defined, the IC50 is the concentration that gives 50% inhibition. The low end stands for inhibition by little substance, the high end for a need for much substance.
